Assay results from PubChem BioAssay (NCI).
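In this assay, cells in 96-well plates receive the compound at five concentrations for 48 hours. Endpoints are linearly interpolated between the surrounding concentrations. Abbreviation: GI50, concentration required for 50% inhibition of growth. TGI is the concentration that stops growth completely.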

What was measured:
Test in all cases: inhibition of tumour cell growth, NCI panel, 48 h
[1] = system: RPMI-8226 leukemia
[2] = system: SR leukemia
[3] = system: CAKI-1 renal
[4] = system: SK-OV-3 ovarian
[5] = system: CCRF-CEM leukemia
[6] = system: SK-MEL-2 melanoma
[7] = system: DU-145 prostate
[8] = system: HT29 colon
[9] = system: MOLT-4 leukemia
[10] = system: NCI-H23 lung
[11] = system: RXF 393 renal
[12] = system: K-562 leukemia
[13] = system: ACHN renal
[14] = system: HL-60(TB) leukemia
[15] = system: MALME-3M melanoma
[16] = system: MCF7 breast
[17] = system: UO-31 renal
[18] = system: NCI-H522 lung
[19] = system: COLO 205 colon
[20] = system: SF-539 CNS
[21] = system: BT-549 breast
[22] = system: LOX IMVI melanoma
[23] = system: NCI-H226 lung
[24] = system: U251 CNS
[25] = system: NCI/ADR-RES ovarian
[26] = system: MDA-MB-435
[27] = system: A498 renal
[28] = system: SK-MEL-28 melanoma
[29] = system: HCT-15 colon
[30] = system: OVCAR-4 ovarian
[31] = system: SF-295 CNS
[32] = system: SF-268 CNS
[33] = system: IGROV1 ovarian
[34] = system: TK-10 renal
[35] = system: OVCAR-3 ovarian
[36] = system: HOP-62 NSCLC
[37] = system: SN12C renal
[38] = system: HCT-116 colon
[39] = system: EKVX NSCLC
[40] = system: SNB-19 CNS
[41] = system: NCI-H460 lung
[42] = system: UACC-257 melanoma
[43] = system: HOP-92 NSCLC
[44] = system: OVCAR-8 ovarian
[45] = system: MDA-MB-231 breast
[46] = system: A549 NSCLC
[47] = system: OVCAR-5 ovarian
[48] = system: SW-620 colon
[49] = system: SNB-75 CNS
[50] = system: M14 melanoma
[51] = system: UACC-62 melanoma
[52] = system: SK-MEL-5 melanoma
[53] = system: PC-3 prostate
[54] = system: 786-0 renal
[55] = system: HCC-2998 colon
[56] = system: HS 578T breast

**Q.** N=C(N)c1ccc(-c2ccc(-c3ccc(Cl)cc3Cl)s2)cc1F was tested. Which GI50 [1] did it give?
**A.** 2.07 µM

**Q.** And the TGI [1]?
**A.** 4.57 µM

**Q.** What about the GI50 [2] of the same compound?
**A.** 1.42 µM

**Q.** And the TGI [2]?
**A.** > 100 µM

**Q.** What about the GI50 [3] of the same compound?
**A.** 1.63 µM

**Q.** What about the TGI [3] of the same compound?
**A.** 2.99 µM

**Q.** And the GI50 [4]?
**A.** 3.05 µM

**Q.** What about the TGI [4] of the same compound?
**A.** 17.5 µM

**Q.** And the GI50 [5]?
**A.** 1.8 µM

**Q.** And the TGI [5]?
**A.** 4.67 µM

**Q.** And the GI50 [6]?
**A.** 2.21 µM

**Q.** What about the TGI [6] of the same compound?
**A.** 5.2 µM

**Q.** What about the GI50 [7] of the same compound?
**A.** 1.78 µM

**Q.** And the TGI [7]?
**A.** 3.16 µM

**Q.** C(=C\c1n(Cc2ccc3ccccc3c2)c(-c2ccccc2)c(-c2ccccc2)[n+]1Cc1ccc2ccccc2c1)/c1ccccc1 was tested. Which GI50 [1] did it give?
**A.** 0.0758 µM

**Q.** And the TGI [1]?
**A.** 0.621 µM

**Q.** What about the GI50 [8] of the same compound?
**A.** 0.142 µM

**Q.** And the TGI [8]?
**A.** 1.09 µM

**Q.** What about the GI50 [2] of the same compound?
**A.** 0.313 µM

**Q.** And the TGI [2]?
**A.** > 100 µM

**Q.** And the GI50 [9]?
**A.** 0.292 µM

**Q.** What about the TGI [9] of the same compound?
**A.** 1.26 µM

**Q.** What about the GI50 [10] of the same compound?
**A.** 0.257 µM

**Q.** What about the TGI [10] of the same compound?
**A.** 0.919 µM

**Q.** What about the GI50 [11] of the same compound?
**A.** 0.26 µM

**Q.** And the TGI [11]?
**A.** 1.14 µM

**Q.** What about the GI50 [5] of the same compound?
**A.** 0.406 µM

**Q.** What about the TGI [5] of the same compound?
**A.** 2.09 µM

**Q.** And the GI50 [12]?
**A.** 0.222 µM

**Q.** What about the TGI [12] of the same compound?
**A.** 5 µM

**Q.** What about the GI50 [13] of the same compound?
**A.** 0.239 µM

**Q.** What about the TGI [13] of the same compound?
**A.** 0.591 µM

**Q.** And the GI50 [14]?
**A.** 0.2 µM

**Q.** And the TGI [14]?
**A.** 0.635 µM

**Q.** Which results are given for NC(=NCCCOc1ccc(Cl)cc1)Nc1ccc(Cl)cc1?
**A.** GI50 [15]: 1.95 µM; TGI [15]: 4.14 µM; GI50 [16]: 2.2 µM; TGI [16]: 7.35 µM; GI50 [17]: 2.17 µM; TGI [17]: 8.1 µM; GI50 [18]: 2.05 µM; TGI [18]: 4.8 µM; GI50 [19]: 1.17 µM; TGI [19]: 2.75 µM; GI50 [1]: 2.1 µM; TGI [1]: 4.66 µM; GI50 [8]: 2.12 µM; TGI [8]: 5.95 µM; GI50 [20]: 1.83 µM; TGI [20]: 3.72 µM; GI50 [2]: 2.17 µM; TGI [2]: 5.9 µM; GI50 [9]: 1.66 µM; TGI [9]: 4.66 µM; GI50 [21]: 3.35 µM; TGI [21]: 10 µM; GI50 [3]: 2.77 µM; TGI [3]: 9.11 µM; GI50 [22]: 1.6 µM; TGI [22]: 2.98 µM; GI50 [4]: 3.31 µM; TGI [4]: 12.3 µM; GI50 [23]: 3.97 µM; TGI [23]: 19.6 µM; GI50 [10]: 2.31 µM; TGI [10]: 7.43 µM; GI50 [11]: 1.86 µM; TGI [11]: 6.97 µM; GI50 [24]: 2.65 µM; TGI [24]: 8.36 µM; GI50 [25]: 3.03 µM; TGI [25]: 9.92 µM; GI50 [26]: 1.76 µM; TGI [26]: 3.37 µM; GI50 [27]: 1.92 µM; TGI [27]: 5.43 µM; GI50 [28]: 1.89 µM; TGI [28]: 3.64 µM; GI50 [29]: 2.98 µM; TGI [29]: 9.29 µM; GI50 [5]: 2.11 µM; TGI [5]: 6.74 µM; GI50 [30]: 2.3 µM; TGI [30]: 7.9 µM; GI50 [31]: 2.42 µM; TGI [31]: 6.9 µM; GI50 [32]: 3.1 µM; TGI [32]: 13 µM; GI50 [6]: 2.32 µM; TGI [6]: 4.72 µM; GI50 [33]: 2.02 µM; TGI [33]: 5.83 µM; GI50 [34]: 1.75 µM; TGI [34]: 3.89 µM; GI50 [35]: 2.84 µM; TGI [35]: 8.09 µM; GI50 [36]: 2.53 µM; TGI [36]: 8.01 µM; GI50 [37]: 2.75 µM; TGI [37]: 10.9 µM; GI50 [38]: 1.61 µM; TGI [38]: 3.24 µM; GI50 [12]: 1.85 µM; TGI [12]: 4.32 µM; GI50 [39]: 3.87 µM; TGI [39]: 13.3 µM; GI50 [40]: 2.46 µM; TGI [40]: 13.6 µM; GI50 [41]: 2.7 µM; TGI [41]: 7.94 µM; GI50 [42]: 1.91 µM; TGI [42]: 3.84 µM; GI50 [43]: 1.51 µM; TGI [43]: 5.53 µM; GI50 [44]: 3.16 µM; TGI [44]: 12.1 µM; GI50 [45]: 1.97 µM; TGI [45]: 4.56 µM; GI50 [46]: 3.48 µM; TGI [46]: 12.7 µM; GI50 [47]: 2.02 µM; TGI [47]: 6.56 µM; GI50 [48]: 1.94 µM; TGI [48]: 5.59 µM; GI50 [49]: 0.725 µM; TGI [49]: 11.8 µM; GI50 [13]: 2.01 µM; TGI [13]: 5.31 µM; GI50 [50]: 1.67 µM; TGI [50]: 3.39 µM; GI50 [51]: 1.88 µM; TGI [51]: 3.94 µM; GI50 [52]: 1.74 µM; TGI [52]: 3.16 µM; GI50 [53]: 2.1 µM; TGI [53]: 6.29 µM; GI50 [54]: 2.15 µM; TGI [54]: 6.67 µM; GI50 [7]: 2.67 µM; TGI [7]: 7.73 µM; GI50 [55]: 1.5 µM; TGI [55]: 3.12 µM; GI50 [56]: 3.39 µM; TGI [56]: 14 µM; GI50 [14]: 1.88 µM; TGI [14]: 4.58 µM
